Measured values from US20120258042A1, “COMBINED USE OF TGF-B SIGNALING INHIBITOR AND ANTITUMOR AGENT” (priority 2006, published 2012).
Where two headings read alike, the source gives them in different places.

Key:
[1] = test system: Smad-4-deficient pancreatic adenocarcinoma cells (BxPC3); experiment: 3-7 BxPC3 xenograft growth curve, three administrations of ADR or Micelle-ADR with or without LY; format: in vivo, nude mice; conditions: day 16, Micelle-ADR 16 mg/kg or ADR 8 mg/kg i.v. three times spaced by four days, LY 1 mg/kg i.p. three times a week, start = 1, control 4.69±0.46
Experimental: For each of, 16 mg/kg of Micelle-ADR or 8 mg/kg of ADR as anticancer agent, or no anticancer agent, administration via the tail vein was carried out three times spaced by four days. […] For these animals, the approximated values of tumor volume were observed continuously for 16 days.

[2] = test system: Smad-4-deficient pancreatic adenocarcinoma cells (BxPC3); experiment: 3-6 BxPC3 xenograft growth curve, single administration of ADR, Doxil, Micelle-ADR with or without LY; format: in vivo, nude mice; conditions: day 14, single dose 8 mg/kg anticancer agent i.v., LY 1 mg/kg i.p. once, start = 1, control 4.77±0.50
Experimental: For each of 8 mg/kg of Doxil, 8 mg/kg of Micelle-ADR or 8 mg/kg of ordinary ADR as anticancer agent, or no anticancer agent, which was administrated via the tail vein, administration was carried out only once. […] Inhib in the figures) as TGF-β inhibitor or a control.

[3] = test system: TGFbRII-mutant pancreatic adenocarcinoma cell line MIA PaCa-2; experiment: 3-8 MIA PaCa-2 xenograft tumor growth curve; format: in vivo, nude mice; conditions: regimen as 3-7, start = 1, control 2.91±0.30
Experimental: For each of, 16 mg/kg of Micelle-ADR or 8 mg/kg of ADR as anticancer agent, or no anticancer agent, administration via the tail vein was carried out three times spaced by four days. As TGF-β inhibitor, 1 mg/kg of LY364947 (hereinafter, referred to as LY) or control was administered three times a week intraperitoneally. The experiment was carried out for the six conditions combining the above 3×2 types [of administration modes], with n=5 each. For these animals, the approximated values of tumor volume were observed continuously for 16 days. For the tumor volumes, those that have been approximated by long side of tumor mass×(short side)^2 were compared, taking 1 as the value at the administration start time for each tumor mass.

[4] = test system: Smad-4-deficient pancreatic adenocarcinoma cells (BxPC3); experiment: Combined effect of Gemcitabine and LY364947 on tumor volume, pancreatic adenocarcinoma xenograft model; format: in vivo, nude mice; conditions: day 21, Gem 125 mg/kg i.p. twice a week, LY 1 mg/kg i.p. three times a week, value at start = 1, control 5.56±1.59
Experimental: Combining Gemcitabine (hereinafter, abbreviated as Gem), administrated twice a week intraperitoneally at 125 mg/kg, and LY364947 (hereinafter, referred to as LY), administrated three times a week intraperitoneally at 1 mg/kg, three groups were established as follows: a control group, a Gem alone administration group and a LY+Gem combined application group, with n=2 each. […] The tumor volumes were approximated by long side of tumor mass×(short side)^2 and compared, taking 1 as the value at the administration start time for each tumor mass.

[5] = test system: phosphorylated Smad2; experiment: 3-4 Phosphorylated Smad2 in nucleated blood cells by FACS one hour after LY364947; format: in vivo, nude mice; conditions: LY 1 mg/kg i.p., 1 h, control group 35.7%
Experimental: Cancer-transplanted nude mice were administered once intraperitoneally with 1 mg/kg of LY as TGF-β inhibitor or a control. One hour after administration, whole blood collection was carried out, hemolysis treatment, formalin fixation, cell membrane perforation by methanol were carried out, then, staining was carried out with an antibody against phosphorylated Smad2, thereafter, the ratio of phosphorylated Smad2-positive cells was measured by FACS. In so doing, with those [samples] where only the secondary antibody was reacted serving as controls for the immuno-staining method, the gate was set so that rate of positive cell was approximately 1% in this group (P1 in FIG. 5-2), and the ratio of phosphorylated Smad2-positive cells was measured for the TGF-β inhibitor-administered group and the non-treated group.

[6] = test system: phosphorylated Smad2; experiment: 3-3 Phosphorylated Smad2 staining in BxPC3 cancer tissue one hour after LY364947; format: in vivo, nude mice; conditions: 1 h
Experimental: As TGF-β inhibitor, 1 mg/kg, 25 mg/kg or a control of LY was administered once intraperitoneally. The animals were sacrificed one hour after administration to extract the tumor, and immuno-histological staining of the tumor was carried out using an antibody against phosphorylated Smad2 as well as an antibody against PECAM1.

[7] = test system: existing vasculature of general organs (brain, liver, kidney); experiment: 3-2 General organs, vasculature morphological change and dextran distribution; format: in vivo, nude mice; conditions: LY 1 mg/kg i.p.
Source text: Brain, liver and kidney were extracted from animals used in 3-1 to carry out histological search.

[8] = test system: neovasculature; experiment: Matrigel plug assay, effects of TGF-β signaling inhibitor on neovasculature; format: in vivo, ICR mice; conditions: 500 nM LY
Experimental: In the present invention, increasing the leakiness of neovasculature in tumor tissue, and, depending on the circumstances, decreasing fibrosis, are phenomena that can be observed, for instance, in a dextran injection experiment (briefly, an experiment in which a mouse is used, a Matrigel in which VEGF-A and FGF-2 have been mixed is injected subcutaneously into the abdominal wall, and seven days after administering TGF-β signaling inhibitor intraperitoneally, 2,000,000 molecular weight dextran is injected, the animal is sacrificed, and the relationship between neovasculature and dextran distribution in the extracted Matrigel plug is determined: refer to Kano, M. R. et al., J. Cell Sci., 118, 3759-3768. (2005)) (refer to FIG. 2-1 and FIG. 2-2).
VEGF-A, FGF-2, and heparin were mixed into Matrigel (BD), furthermore, 500 nM of the TGF-β inhibitor LY364947 (hereinafter, referred to as LY) or 50 μg/ml of T βRII:Fc or a control was further mixed into the same gel, these were subcutaneously injected into the abdominal wall of male ICR mice, the animals were sacrificed on the 7th day to extract the Matrigel plug, and a search was carried out using immunofluorescence staining. Concretely, regarding the neovasculature morphology, vascular endothelial cells were recognized with an antibody against PECAM-1 (platelet endothelial cell adhesion molecule-1) and vascular pericytes were recognized with an antibody against SMA (a smooth muscle actin), in the LY-administered group or control group, the proportion of the areas covered by pericytes within the total endothelial cell area, and, the areas positive for the vascular endothelium marker were quantified (hereabove, n=20). In addition, 6 hours prior to sacrifice, macromolecular dextran with a molecular weight of 2,000,000 (Invitrogen Molecular Probes) was administered via the tail vein, and the difference in distribution in tumor tissue due to the presence or absence of inhibitor was investigated by quantification of the distribution area (n=21).

[9] = 3-14 Drug in vivo dynamics in general organs, Micelle-ADR or ADR with LY; parameters: species or system nude mice
Experimental: Each of 8 mg/kg of Micelle-ADR or 8 mg/kg of ADR as anticancer agent was administered to tumor-bearing nude mice via the tail vein. As TGF-β inhibitor, 1 mg/kg of LY or a control was administered intraperitoneally. Experiment was carried out for the four conditions combining the above 2×2 types [of administration modes], with n=3. […] In addition, the surrounding of the tail vein where the agents were administered was observation.

[10] = test system: neovasculature in BxPC3 tumor tissue; experiment: 3-1 BxPC3 xenograft, neovasculature morphological change and dextran distribution; format: in vivo, nude mice
Experimental: Twenty-four hours before sacrificing the animals, 1 mg/kg of LY364947 (hereinafter, referred to as LY) as TGF-β inhibitor or a control was administered once intraperitoneally. […] Concretely, regarding the neovasculature morphology, vascular endothelial cells were recognized with an antibody against PECAM-1 (platelet endothelial cell adhesion molecule-1), vascular pericytes were recognized with an antibody against NG2 (neuroglycan 2), the proportion of the areas covered by pericytes within the total endothelial cell area, and, the areas positive for the vascular endothelium marker were quantified (hereabove, n=4 animals×10 microscopic visual fields=40), in addition, regarding dextran distribution, the distribution area thereof was quantified. In addition, after an identical model was prepared, 6 hours prior to sacrifice, macromolecular dextran with a molecular weight of 2,000,000 (Invitrogen Molecular Probes) was administered via the tail vein, and the difference in distribution in tumor tissue due to the presence or absence of inhibitor was investigated by quantification of the distribution area (n=3 animals×4 microscopic visual field=12).

[11] = test system: mouse breast cancer cell line 4T1; conditions: systemic administration by intraperitoneal injection; cited from earlier work
[12] = test system: hepatic fibrosis; conditions: intraperitoneal injection, cited from earlier work

COc1cccc2c1C(=O)c1c(O)c3c(c(O)c1C2=O)C[C@@](O)(C(=O)CO)C[C@@H]3O[C@H]1C[C@H](N)[C@H](O)[C@H](C)O1 [ADR, adriamycin]
relative tumor volume on the last day [1]: 3.49±0.20 | relative tumor volume on the last day [2]: 4.70±0.32 | relative tumor volume on the last day (16th day) [3]: 0.87±0.19

Nc1ccn([C@@H]2O[C@H](CO)[C@@H](O)C2(F)F)c(=O)n1 [Gemcitabine]
relative tumor volume on the last day [4]: 4.76±0.46

c1ccc(-c2[nH]ncc2-c2ccnc3ccccc23)nc1 [LY364947]
cells positive for phosphorylated Smad2 [5]: 16.3% | relative tumor volume on the last day [1]: 4.34±0.37 | Smad2 phosphorylation in intratumoral vascular walls, magnified visual field ([6]; LY 1 mg/kg i.p.): cancellation of Smad2 phosphorylation was observed | phosphorylated Smad2 staining of tumor vs control, weak magnification visual field ([6]; LY 1 mg/kg i.p.): no remarkable difference | Smad2 phosphorylation in cancer cells ([6]; LY 25 mg/kg i.p.): cancellation of Smad2 phosphorylation was observed in almost the entirety of the cancer cells | dextran distribution in general organs [7]: no clear difference | morphology of existing vasculature of general organs [7]: No clear change in morphology | total area of the vascular endothelium ([8]; day 7, p=0.0009): increased significantly | endothelial cell coverage of the pericytes ([8]; day 7, vs non-administered group, p=0.006): decreased significantly | dextran distribution area ([8]; dextran MW 2,000,000 i.v. 6 h before sacrifice, p<0.0001): increased approximately two-fold | relative tumor volume on the last day [2]: 4.83±0.54 | relative tumor volume on the last day (16th day) [3]: 2.75±0.08 | organ distribution (frozen samples), LY administration vs non-administration ([9]; LY 1 mg/kg i.p., four hours): no clear difference | total amount of ADR in organs by the HPLC method, LY administration vs non-administration ([9]; Micelle-ADR 8 mg/kg i.v., LY 1 mg/kg i.p., four hours, all organs measured): no significant difference | anticancer agent-related phlebitis ([9]; combined administration of LY 1 mg/kg i.p., surrounding of the tail vein): no deterioration | endothelial cell marker-positive area ([10]; BxPC3 xenograft, LY 1 mg/kg i.p. once, 24 h, control 1.00±0.03, p=0.02): 1.13±0.06 | extent of coverage of endothelial cells by the pericyte ([10]; BxPC3 xenograft, LY 1 mg/kg i.p. once, 24 h, control 36.0±2.2%, p=0.00002): 23.3±1.9% | macromolecular dextran distribution area ([10]; BxPC3 xenograft, LY 1 mg/kg i.p. once, dextran MW 2,000,000 6 h before sacrifice, control 1.00±0.13, p=0.002): 2.24±0.36 | fibrosis of tumor tissue (azan staining) ([10]; LY 1 mg/kg, administered vs non-administered, P=0.336): no significant difference

B1: solubilized TGF-β Type II receptor: solubilized TGF-β Type II receptor (TGF-β ligand-adsorbed) protein, literature studies (protein, UniProt P37173 23-166, looked up)
extracellular domain: TIPPHVQKSVNNDMIVTDNNGAVKFPQLCKFCDVRFSTCDNQKSCMSNCSITSICEKPQEVCVAVWRKNDENITLETVCHDPKLPYHDFILEDAASPKCIMKEKKKPGETFFMCSCSSDECNDNIIFSEEYNTSNPDLLLVIFQ
modifications: extracellular domain
notes: solubilized TGF-β Type II receptor (TGF-β ligand-adsorbed) protein, literature studies
lung metastasis [11]: decreased | hepatic fibrosis ([12]; 2.5 mg/kg): not suppressed | hepatic fibrosis ([12]; 5 mg/kg): suppressed
